Data: patent publication US8568696B2, “Grinding method for the manipulation or preservation of calcium phosphate hybrid properties” (Indiana Nanotech LLC, priority 2008, dated 2013)

Key:
[1] = In vitro remineralization/demineralization pH cycling study, Vickers surface microhardness of eroded enamel; design: species or system Bovine; conditions: change in Vickers microhardness relative to baseline
Description: An efficacy study was run in order to evaluate in multiple pH remin/demin cycling models the efficacy of calcium phosphate blends prepared as described above in remineralizing eroded enamel. These studies involved 226 ppm fluoride rinse systems.
The experiment design for the remineralization/demineralization pH cycling study is as follows. Bovine enamel specimens were extracted, ground, and polished. Initial erosion was performed by immersing each enamel specimen in 10 ml of 1% citric acid (pH=3.8) for 30 minutes. After the immersion, four baseline Vickers indentations under a 200 gf load for 15 seconds were made on each specimen and those with a Vickers microhardness number between 200 and 230 VHN were selected for the study. There were three groups in this study (N=10 specimens per group): • Group 1: negative control (DI water) • Group 2: positive control (226 ppm F) • Group 3: 226 ppm F plus 0.004% β-tricalcium phosphate-silica-carbamide
The cycling regimen consisted of five, two-minute/day acid challenges and three, two-minute treatments/day. In between treatments and acid challenges, each specimen was immersed in artificial mineral mix. This process was repeated up to 20 days, after which a post-cycle acid challenge was administered using 1% citric acid (pH=3.8) for 11 minutes. The specimens were evaluated for Vickers surface microhardness after 10 and 20 days as well as after the post-cycle acid challenge. The change in Vickers microhardness relative to baseline values was then used as the performance gauge. Remineralization efficacy was evaluated by comparing post surface Vickers microhardness numbers to baseline surface Vickers values. Means and standard deviations of the means were calculated and the Student Q-test was employed to assess accuracy of the individual specimen measurements within each group. […]
This cycling study evaluated the β-tricalcium phosphate-silica-carbamide blend when combined in a 226 ppm fluoride (NaF(aq)) solution and tested in a pH cycling model. […]

[2] = Long-term accelerated aging of NaF(aq)-hybrid suspensions, fluoride availability by fluoride-sensitive electrode; assay type: physicochemical; conditions: supernatant, triplicate
Description: Long-term accelerated aging studies were performed on NaF(aq)-hybrid suspensions. The experiments were carried out in triplicate with 1 mL of each supernatant aspirated, mixed with 1 mL of TISAB II (1:1), and measured with a fluoride-sensitive electrode calibrated to known standards of 100, 950, and 1900 ppm fluoride.
The purpose of this study was to determine if the NaF(aq)-hybrid suspensions maintain sufficient fluoride availability. • 0.24% and 0.32% NaF systems were aged for 122 Days @ 40° C. • 0.05% NaF systems were aged for 119 Days @ 40° C. Results

In the case of [F-].[Na+] [Group 2], the “Mean ΔVHN ± SEM, after 10 days” value ([1]; 10 days pH cycling, N=10 specimens per group) is reported as 73.2 ± 7.0^2, the “Mean ΔVHN ± SEM, after 20 days” value ([1]; 20 days pH cycling, N=10 specimens per group) is reported as 67.6 ± 7.6^2 and the “Mean ΔVHN ± SEM, after post-cycle acid challenge” value ([1]; after 11-minute post-cycle acid challenge, 1% citric acid pH 3.8) is reported as 81.9 ± 7.1^2.

For [F-].[Na+] [0.24% NaF Control], the “Mean ppm F ± Std. Dev” value ([2]; aged for 122 Days @ 40° C.) was 1080.7 ± 4.8 ppm F.

In the case of [F-].[Na+] [0.32% NaF Control], the “Mean ppm F ± Std. Dev” value ([2]; aged for 122 Days @ 40° C.) is reported as 1493.3 ± 3.3 ppm F.

With [F-].[Na+] [0.05% NaF Control] the “Mean ppm F ± Std. Dev” value ([2]; aged for 119 Days @ 40° C.) was 231.7 ± 0.5 ppm F.
